{
  "source": "patent US9961900B2",
  "about": "“Herbicide formulations” (priority 2012, dated 2018)",
  "origin": "cited, not measured here",
  "key": {"[1]": {"details": "for Aqueous hydrolysis (DT50): 20° C. and pH 7"}, "[2]": {"assay": "not given", "remark": "listed apart in the source"}, "[3]": {"assay": "not given", "remark": "listed apart in the source"}},
  "note": "Read-outs that look alike come from different tables or passages of the source.",
  "data": [
    {"compound": "CCOC(=O)C(Cl)Cc1cc(-n2nc(C)n(C(F)F)c2=O)c(F)cc1Cl", "note": "(racemic) [carfentrazone-ethyl, ethyl (RS)-2-chloro-3-{2-chloro-5-[4-(difluoromethyl)-4,5-dihydro-3-methyl-5-oxo-1H-1,2,4-triazol-1-yl]-4-fluorophenyl}propionate]", "values": [
      {"measurement": "Aqueous hydrolysis (DT50)", "setting": "[1]", "result": "13.7 (non-persistent) days"},
      {"measurement": "Aqueous hydrolysis stability", "setting": "[1]; pH 5, 20° C.", "result": "pH sensitive: stable at pH 5,"},
      {"measurement": "Hydrolysis DT50", "setting": "[1]; pH 9, 20° C.", "result": "DT50 5.1 hours at pH 9, (20° C.)^+"},
      {"measurement": "Solubility in acetone", "setting": "20° C.", "result": 2000, "unit": "g/L"},
      {"measurement": "Solubility in ethanol", "setting": "20° C.", "result": 2000, "unit": "g/L"},
      {"measurement": "Solubility in hexane", "setting": "20° C.", "result": 30, "unit": "g/L"},
      {"measurement": "Solubility in toluene", "setting": "20° C.", "result": 900, "unit": "g/L"},
      {"measurement": "Solubility in water", "setting": "20° C.", "result": "Water: 22 mg/L (20° C.)"},
      {"measurement": "log P (octanol-water)", "setting": "[2]; pH 7, 20° C.", "result": "logP = 3.36"}
    ]},
    {"compound": "COc1ncc(F)c2nc(S(=O)(=O)Nc3c(F)cccc3F)nn12", "note": "[florasulam]", "values": [
      {"measurement": "Aqueous hydrolysis", "setting": "[1]; at pH 7 and 20° C.", "result": "Stable"},
      {"measurement": "Solubility in acetone", "result": "Acetone: 123,000 mg/L"},
      {"measurement": "Solubility in water", "result": "Water: 6360 mg/L"},
      {"measurement": "log P (octanol-water)", "setting": "[2]", "result": "log P: −1.22"},
      {"measurement": "Photolytic stability DT50", "setting": "[3]; at pH 7", "result": "DT50: 156 d"}
    ]},
    {"compound": "COC(=O)[C@@H](C)Oc1ccc(Oc2ncc(C(F)(F)F)cc2Cl)cc1", "note": "[haloxyfop-p-methyl, methyl (R)-2-{4-[3-chloro-5-(trifluoromethyl)-2-pyridyloxy]phenoxy}propionate]", "values": [
      {"measurement": "DT50", "setting": "[1]; natural water, 20° C.", "result": 3, "unit": "days"},
      {"measurement": "DT50", "setting": "[1]; pH 4, 20° C.", "result": "stable"},
      {"measurement": "DT50", "setting": "[1]; pH 7, 20° C.", "result": 43, "unit": "days"},
      {"measurement": "DT50", "setting": "[1]; pH 9, 20° C.", "result": "0.63 d (pH 9) (all at 20° C.) ^+"},
      {"measurement": "Solubility in acetone", "setting": "25° C.", "result": "> 500", "unit": "g/L"},
      {"measurement": "Solubility in dichloromethane", "setting": "25° C.", "result": "> 500", "unit": "g/L"},
      {"measurement": "Solubility in ethyl acetate", "setting": "25° C.", "result": "> 500", "unit": "g/L"},
      {"measurement": "Solubility in methanol", "setting": "25° C.", "result": 76, "unit": "g/L"},
      {"measurement": "Solubility in n-hexane", "setting": "25° C.", "result": 11, "unit": "g/L"},
      {"measurement": "Solubility in toluene", "setting": "25° C.", "result": "> 500", "unit": "g/L"},
      {"measurement": "Solubility in water", "setting": "pH 5, 25° C.", "result": 6.9, "unit": "mg/L"},
      {"measurement": "Solubility in water", "setting": "pH 7, 25° C.", "result": "7.9 mg/L at pH 7 (all at 25° C.)"},
      {"measurement": "Solubility in water", "setting": "unbuffered, 25° C.", "result": 9.1, "unit": "mg/L"},
      {"measurement": "log P (octanol-water)", "setting": "[2]; 20° C.", "result": "log P = 4.0"},
      {"measurement": "Aqueous photolysis DT50", "setting": "[3]; pH 7", "result": "Aqueous photolysis DT50 at pH 7: 20 days^++"}
    ]},
    {"compound": "CCOC(=O)[C@@H](C)Oc1ccc(Oc2nc3ccc(Cl)cc3o2)cc1", "note": "[fenoxaprop-p-ethyl, ethyl (R)-2-[4-(6-chloro-1,3-benzoxazol-2-yloxy)phenoxy]propionate]", "values": [
      {"measurement": "Hydrolytic DT50", "setting": "[1]; pH 4, 25° C.", "result": 2.8, "unit": "days"},
      {"measurement": "Hydrolytic DT50", "setting": "[1]; pH 5, 25° C.", "result": 19.2, "unit": "days"},
      {"measurement": "Hydrolytic DT50", "setting": "[1]; pH 7, 25° C.", "result": 23.2, "unit": "days"},
      {"measurement": "Hydrolytic DT50", "setting": "[1]; pH 9, 25° C.", "result": "7), 0.6 d (pH 9) (all at 25° C.) ^+"},
      {"measurement": "Solubility in acetone", "setting": "20° C.", "result": "In acetone, ethyl acetate, toluene, >200 g/L;"},
      {"measurement": "Solubility in ethyl acetate", "setting": "20° C.", "result": "In acetone, ethyl acetate, toluene, >200 g/L;"},
      {"measurement": "Solubility in methanol", "setting": "20° C.", "result": "methanol 43 g/L (all at 20° C.) ^+"},
      {"measurement": "Solubility in water", "setting": "pH 5.8, 25° C.", "result": "Water: 0.7 mg/L at pH 5.8 (25° C.)"},
      {"measurement": "log P (octanol-water)", "setting": "[2]", "result": "log P = 4.58 ^+"},
      {"measurement": "Aqueous photolysis DT50", "setting": "[3]; pH 7", "result": "Aqueous photolysis DT50 at pH 7: 105 days"}
    ]},
    {"compound": "C#CCOc1cc(-n2nc3n(c2=O)CCCC3)c(Cl)cc1Cl", "note": "[azafenidin, 2-(2,4-dichloro-5-prop-2-ynyloxyphenyl)-5,6,7,8-tetrahydro-1,2,4-triazolo[4,3-a]pyridin-3(2H)-one]", "values": [
      {"measurement": "Solubility in water", "setting": "20° C.", "result": "Water: 16 mg/L (20° C.) ^++"},
      {"measurement": "log P (octanol-water)", "setting": "[2]; pH 7, 20° C.", "result": "logP = 2.7"},
      {"measurement": "Aqueous photolysis DT50", "setting": "[3]; Pesticide Properties Database", "result": 0.5, "unit": "days"}
    ]},
    {"compound": "COC(=O)C(C)Oc1ccc(Oc2ccc(Cl)cc2Cl)cc1", "note": "(racemic) [diclofop-methyl, methyl (RS)-2-[4-(2,4-dichlorophenoxy)phenoxy]propionate]", "values": [
      {"measurement": "Aqueous hydrolysis (DT50)", "setting": "[1]", "result": "at 20 °C and pH 7: 31.7 days"},
      {"measurement": "Hydrolysis DT50", "setting": "[1]; pH 5, 25° C., darkness", "result": 363, "unit": "days"},
      {"measurement": "Hydrolysis DT50", "setting": "[1]; pH 7, 25° C., darkness", "result": 31.7, "unit": "days"},
      {"measurement": "Hydrolysis DT50", "setting": "[1]; pH 9, 25° C., darkness", "result": 0.52, "unit": "days"},
      {"measurement": "Solubility in acetone", "setting": "20° C.", "result": "In acetone, toluene, dichloromethane, 500,000 mg/L"},
      {"measurement": "Solubility in dichloromethane", "setting": "20° C.", "result": "In acetone, toluene, dichloromethane, 500,000 mg/L"},
      {"measurement": "Solubility in n-hexane", "setting": "20° C.", "result": "mg/L; in n-Hexane: 49,700 mg/L (all at 20° C.) ^++"},
      {"measurement": "Solubility in toluene", "setting": "20° C.", "result": "In acetone, toluene, dichloromethane, 500,000 mg/L"},
      {"measurement": "Solubility in water", "setting": "20° C.", "result": "Water: 0.39 mg/L (20° C.)"},
      {"measurement": "log P (octanol-water)", "setting": "[2]; pH 7, 20° C.", "result": "log P = 4.8"},
      {"measurement": "Aqueous photolysis DT50", "setting": "[3]; pH 7", "result": "Aqueous photolysis DT50 at pH 7: 22 days^++"}
    ]}
  ]
}
